The subject of the assay is P23H opsin. Kind of assay: Rhodopsin purification and regeneration (P23H cells treated with compound, regenerated with 9-cis-retinal, 480-500 nm absorbance). The settings on record: for Fold Increase Over Control: 480-500 nm absorbance as fold increase over DMSO control, P23H cells.

With `CC1=C(COc2cccc(F)c2)C(C)(C)CCC1` [Compound 7, 1-fluoro-3-((2,6,6-trimethylcyclohex-1-enyl)methoxy)benzene], under “compound 10 μM”, the “Fold Increase Over Control” value stood at 2.4 fold.

For `C[C@H]1CCCC(C)(C)[C@@H]1CNc1cccc(F)c1.Cl` [Compound 38, 3-fluoro-N-(((1R,6S)-2,2,6-trimethylcyclohexyl)methyl)aniline hydrochloride], under “compound 10 μM”, the “Fold Increase Over Control” value was determined as 2.4 fold.

`CC1=C(CC(O)c2cccc(C(F)(F)F)c2)C(C)(C)CCC1` (centres unmarked) [Compound 20, 1-(3-(trifluoromethyl)phenyl)-2-(2,6,6-trimethylcyclohex-1-enyl)ethanol]: the “Fold Increase Over Control” value (compound 20 μM) worked out at 2.4 fold.

Regarding `CC1=C(COc2cccc(C)c2)C(C)(C)CCC1` [Compound 6, 1-methyl-3-((2,6,6-trimethylcyclohex-1-enyl)methoxy)benzene], the “Fold Increase Over Control” value (compound 10 μM) is listed as 1.6 fold.

Regarding `CC1=C(COc2ccc(F)c(F)c2)C(C)(C)CCC1` [Compound 29, 1,2-difluoro-4-((2,6,6-trimethylcyclohex-1-enyl)methoxy) benzene], the “Fold Increase Over Control” value (compound 10 μM) is 2.4 fold.

On to `CC1=C(CNc2ccc(F)c(C)c2)C(C)(C)CCC1.Cl` [Compound 15, 4-fluoro-3-methyl-N-((2,6,6-trimethylcyclohex-1-enyl)methyl)aniline hydrochloride], for which the “Fold Increase Over Control” value (compound 10 μM) came out at 1.6 fold.

`CC1=C(C(O)Cc2ccc(C)c(C)c2)C(C)(C)CCC1` (centres unmarked) [Compound 30, 2-(3,4-dimethylphenyl)-1-(2,6,6-trimethylcyclohex-1-enyl)ethanol]: the “Fold Increase Over Control” value (compound 10 μM) is on record as 1.8 fold.

Regarding `CC1(C)CCCC=C1CNc1cccc(F)c1.Cl` [Compound 32, N-((6,6-dimethylcyclohex-1-enyl)methyl)-3-fluoroaniline hydrochloride], for the setting “compound 10 μM”, the “Fold Increase Over Control” value was 1.7 fold.

In the case of `CC1=C(CNc2cccc(C)c2)C(C)(C)CCC1` [Compound 2, 3-methyl-N-((2,6,6-trimethylcyclohex-1-enyl)methyl)aniline], the “Fold Increase Over Control” value (compound 10 μM) was found to be 2.0 fold.

On to `C[C@H]1CCCC(C)(C)[C@@H]1CNc1cccc(Cl)c1.Cl` [Compound 37, 3-chloro-N-(((1R,6S)-2,2,6-trimethylcyclohexyl)methyl)aniline hydrochloride], for which the “Fold Increase Over Control” value (compound 10 μM) is recorded as 2.4 fold.

In the case of `CC(=O)/C=C/C1=C(C)CCCC1(C)C` [β-ionone, reference compound], the “Fold Increase Over Control” value (compound 20 μM) worked out at 2.4 fold. The “regeneration of 500 nm absorbing pigment upon treatment with retinal” value (FIG. 1, P23H opsin treated with 20 μM during mutant protein production, relative to vehicle (DMSO) alone) is “increase”.

`CC1=C(CNc2cccc(Cl)c2)C(C)(C)CCC1` [Compound 5, 3-chloro-N-((2,6,6-trimethylcyclohex-1-enyl)methyl)aniline]: the “Fold Increase Over Control” value (compound 10 μM) was determined as 1.8 fold.

Consider `C[C@H]1CCCC(C)(C)[C@@H]1CNc1cccc(C(F)(F)F)c1.Cl` [Compound 12, 3-(trifluoromethyl)-N-(((1R,6S)-2,2,6-trimethylcyclohexyl)methyl)aniline hydrochloride], for which the “Fold Increase Over Control” value (compound 20 μM) was determined as 2.0 fold.

Take `CC1=C(CNc2cccc(C(F)(F)F)c2)C(C)(C)CCC1.Cl` [Compound 1, 3-(trifluoromethyl)-N-((2,6,6-trimethylcyclohex-1-enyl)methyl)aniline hydrochloride]: for the setting “compound 10 μM”, the “Fold Increase Over Control” value is listed as 1.8 fold.

With `CC1=C(CNc2cccc(F)c2)C(C)(C)CCC1.Cl` [Compound 10, 3-fluoro-N-((2,6,6-trimethylcyclohex-1-enyl)methyl)aniline hydrochloride], the “Fold Increase Over Control” value (compound 10 μM) amounted to 2.1 fold.

Consider `CC1=C(COc2cccc(Cl)c2)C(C)(C)CCC1` [Compound 8, 1-chloro-3-((2,6,6-trimethylcyclohex-1-enyl)methoxy)benzene], for which, where the note is “compound 10 μM”, the “Fold Increase Over Control” value is 2.2 fold.

Values taken from patent publication US10040749B2, “Opsin-binding ligands, compositions and methods of use” (priority 2011, dated 2018).
